44 compounds from US20250353857A1, “COMPOUND ACTIVE AS INHIBITOR OF COLONY STIMULATION FACTOR-1 RECEPTOR (CSF-1 R)” (priority 2022, published 2025) can be followed below.

The structures appear in SMILES notation. Some results are limits rather than exact numbers.

Chain of CSF1R (P07333 20-972): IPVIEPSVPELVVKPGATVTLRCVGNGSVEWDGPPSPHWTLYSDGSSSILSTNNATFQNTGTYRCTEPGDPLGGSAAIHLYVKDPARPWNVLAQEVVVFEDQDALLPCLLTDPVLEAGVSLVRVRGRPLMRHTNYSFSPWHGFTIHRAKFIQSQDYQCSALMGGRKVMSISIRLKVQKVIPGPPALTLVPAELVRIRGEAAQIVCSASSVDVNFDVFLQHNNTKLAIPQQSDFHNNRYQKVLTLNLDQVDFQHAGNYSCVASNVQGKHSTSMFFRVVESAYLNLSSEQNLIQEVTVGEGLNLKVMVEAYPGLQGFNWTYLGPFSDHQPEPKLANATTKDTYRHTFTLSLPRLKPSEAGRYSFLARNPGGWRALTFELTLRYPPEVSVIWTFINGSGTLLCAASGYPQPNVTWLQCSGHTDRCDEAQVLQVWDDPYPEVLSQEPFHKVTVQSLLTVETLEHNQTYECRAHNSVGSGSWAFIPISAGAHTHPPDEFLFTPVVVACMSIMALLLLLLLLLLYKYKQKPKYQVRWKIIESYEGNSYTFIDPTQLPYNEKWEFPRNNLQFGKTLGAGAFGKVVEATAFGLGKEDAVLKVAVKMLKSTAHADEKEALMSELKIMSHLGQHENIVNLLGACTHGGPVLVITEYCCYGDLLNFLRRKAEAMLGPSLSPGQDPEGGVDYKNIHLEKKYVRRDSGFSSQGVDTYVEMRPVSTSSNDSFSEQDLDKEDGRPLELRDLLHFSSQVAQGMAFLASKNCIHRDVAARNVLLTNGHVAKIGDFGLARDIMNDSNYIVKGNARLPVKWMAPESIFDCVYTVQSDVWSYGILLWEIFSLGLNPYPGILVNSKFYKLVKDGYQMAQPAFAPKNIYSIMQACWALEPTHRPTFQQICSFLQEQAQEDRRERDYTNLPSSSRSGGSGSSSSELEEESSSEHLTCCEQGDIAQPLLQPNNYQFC

The assay has as its target CSF1R (Homo sapiens (Human), UniProt P07333). Put plainly: CSF1R enzymatic inhibitory assay (Invitrogen Z'-LYTE, FRET).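 Note: kinase phosphorylates a tyrosine on a coumarin/fluorescein FRET peptide, a protease cuts peptide left unphosphorylated, inhibition quantified from the donor-to-acceptor emission ratio with excitation at 400 nm.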 Format: biochemical. The settings on record: Z'-LYTE assay, ATP concentration equal to Km, average of at least 2 titration curves; read-out: CSF1R (IC50).
`CN(Cc1cccs1)c1ncnc2[nH]c(-c3ccc(CO)cc3)nc12` [TIA03-066, N-Methyl-N-(thiophen-2-ylmethyl)-8-(4-(hydroxymethyl)phenyl)-9H-purin-6-amine]: the concentration for half-maximal inhibition (IC50) – broadly, the concentration needed to halve the response being measured – is 3 ± 0.6 nM. On to `COc1ccc(-c2cc3c(N4CCCC4)ncnc3[nH]2)cc1` [MS-46-93, 6-(4-Methoxyphenyl)-4-(pyrrolidin-1-yl)-7H-pyrrolo[2,3-d]pyrimidine], for which the IC50 amounted to 1.1 ± 0.1 nM. For `OCc1ccc(-c2cc3c(N4CCCC4c4ccccc4)ncnc3[nH]2)cc1` (centres unmarked) [TIA05-178, (4-(4-(2-Phenylpyrrolidin-1-yl)-7H-pyrrolo[2,3-d]pyrimidin-6-yl)phenyl)methanol], the IC50 stood at 0.7 ± 0.1 nM.

`CN(Cc1ccccc1F)c1ncnc2[nH]c(-c3ccc(CO)cc3)nc12` [TIA02-130, N-Methyl-N-(2-fluorobenzyl)-8-(4-(hydroxymethyl)phenyl)-9H-purin-6-amine]: the IC50 is 2.3 ± 0.2 nM.

Turning to `CC(C)N(Cc1ccccc1)c1ncnc2[nH]c(-c3ccc(CO)cc3)nc12` [EH02-21, (4-(6-(Benzyl(isopropyl)amino)-9H-purin-8-yl)phenyl)methanol], the IC50 was more than 1000 nM. For the compound `CN(Cc1ccccc1)c1ncnc2[nH]c(-c3ccccc3O)nc12` [TIA073, 2-(6-(Benzyl(methyl)amino)-9H-purin-8-yl)phenol], the half-maximal inhibitory concentration (IC50) amounted to 3.4 ± 0.2 nM. Turning to `CN(Cc1ccccc1)c1ncnc2[nH]cnc12` [TIA008, N-Benzyl-N-methyl-9H-purin-6-amine], the IC50 is 108 ± 7 nM.

For the compound `Cc1cccc(CN(C)c2ncnc3[nH]c(-c4cnn(C(C)C)c4)cc23)c1` [LR-2-108, 6-(1-Isopropyl-1H-pyrazol-4-yl)-N-methyl-N-(3-methylbenzyl)-7H-pyrrolo[2,3-d]pyrimidin-4-amine], the half-inhibitory concentration (IC50) turned out to be 0.4 ± 0.3 nM. With `CN(Cc1cccc(Cl)c1)c1ncnc2[nH]c(-c3ccc(CN4CCOCC4)cc3)cc12` [LR-2-088 (3), N-(3-Chlorobenzyl)-N-methyl-6-(4-(morpholinomethyl)phenyl)-7H-pyrrolo[2,3-d]pyrimidin-4-amine], the IC50 was 0.9 ± 0.9 nM. Regarding `NC1NC=Nc2[nH]c(-c3ccc(CO)cc3)cc21` (centres unmarked) [TIA05-102], the IC50 stood at 85 nM. The result for `Cc1cccc(CN(C)c2ncnc3[nH]c(-c4ccc(-c5nnn[nH]5)cc4)cc23)c1` [FAB 02-14, 6-(4-(1H-Tetrazol-5-yl)phenyl)-N-methyl-N-(3-methylbenzyl)-7H-pyrrolo[2,3-d]pyrimidin-4-amine] reads 3 nM.

Regarding `c1ccc(CNc2ncnc3[nH]c(-c4ccccc4)nc23)cc1` [TIA099, N-Benzyl-8-phenyl-9H-purin-6-amine], the IC50 was 85 ± 10 nM.

Regarding `Cc1ccccc1CN(C)c1ncnc2[nH]c(-c3ccc(CO)cc3)nc12` [TIA03-136, N-Methyl-N-(2-methylbenzyl)-8-(4-(hydroxymethyl)phenyl)-9H-purin-6-amine], the IC50 is 1.8 nM. Regarding `COc1ccc(CN(C)c2ncnc3[nH]c(-c4ccc(CO)cc4)nc23)cc1OC` [TIA03-080, N-(3,4-Dimethoxybenzyl)-N-methyl-8-(4-(hydroxymethyl)phenyl)-9H-purin-6-amine], the IC50 came to 5.7 ± 0.3 nM.

As for `Cc1cccc(CN(C)c2ncnc3[nH]ccc23)c1` [TIA04-069, N-Methyl-N-(3-methylbenzyl)-7H-pyrrolo[2,3-d]pyrimidin-4-amine], the IC50 was determined as 35 nM. On to `OC1(c2ccc(-c3cc4c(N5CCCC5C5CCOCC5)ncnc4[nH]3)cc2)COC1` (centres unmarked) [LR-2-067], for which the IC50 was determined as 3 nM. In the case of `COc1ccc(-c2cc3c(NCc4ccccc4)ncnc3[nH]2)cc1` [JK-356, N-Benzyl-6-(4-methoxyphenyl)-7H-pyrrolo[2,3-d]pyrimidin-4-amine], the IC50 amounted to 6.2 ± 0.4 nM. In the case of `Cc1cccc(CN(C)c2ncnc3[nH]c(-c4ccc(C5(O)COC5)cc4)cc23)c1` [LR-2-060-1, 3-(4-(4-(Methyl(3-methylbenzyl)amino)-7H-pyrrolo[2,3-d]pyrimidin-6-yl)phenyl)oxetan-3-ol], the IC50 came out at 0.3 nM. Regarding `CN(Cc1ccccc1)c1ncnc2[nH]c(-c3ccccc3)nc12` [TIA072, N-Benzyl-N-methyl-8-phenyl-9H-purin-6-amine], the IC50 was found to be 0.7 ± 0.1 nM.

In the case of `CN(Cc1cccc(C(F)(F)F)c1)c1ncnc2[nH]c(-c3ccc(CO)cc3)nc12` [TIA03-108, N-Methyl-N-(3-trifluoromethylbenzyl)-8-(4-(hydroxymethyl)phenyl)-9H-purin-6-amine], the IC50 came to 11 ± 2 nM. For `CN(Cc1cccnc1)c1ncnc2[nH]c(-c3ccc(CO)cc3)nc12` [TIA03-016, N-Methyl-N-(pyridin-3-ylmethyl)-8-(4-(hydroxymethyl)phenyl)-9H-purin-6-amine], the IC50 is 3.8 ± 0.4 nM.

Consider `C[C@H](c1ccccc1)N(C)c1ncnc2[nH]c(-c3ccccc3)cc12` [KUL01-093, (R)—N-Methyl-6-phenyl-N-(1-phenylethyl)-7H-pyrrolo[2,3-d]pyrimidin-4-amine], for which the IC50 was 54 ± 5 nM. The result for `CN(Cc1ccccn1)c1ncnc2[nH]c(-c3ccc(CO)cc3)nc12` [TIA02-164, N-Methyl-N-(pyridin-2-ylmethyl)-8-(4-(hydroxymethyl)phenyl)-9H-purin-6-amine] reads 11 ± 3 nM; that for `CN(Cc1c(F)cccc1F)c1ncnc2[nH]c(-c3ccccc3)cc12` [SH-01-127, N-(2,6-Difluorobenzyl)-N-methyl-6-phenyl-7H-pyrrolo[2,3-d]pyrimidin-4-amine], 9.2 ± 3.3 nM; that for `Cc1cccc(CN(C)c2ncnc3[nH]c(-c4ccc(C(O)(CO)CO)cc4)cc23)c1` [LR-2-060-2, 2-(4-(4-(Methyl(3-methylbenzyl)amino)-7H-pyrrolo[2,3-d]pyrimidin-6-yl)phenyl)propane-1,2,3-triol], 3 nM. Regarding `Oc1ccc(-c2cc3c(NCc4ccccc4)ncnc3[nH]2)cc1` [JK-367, 4-(4-(Benzylamino)-7H-pyrrolo[2,3-d]pyrimidin-6-yl)phenol], the IC50 was more than 200 nM. Consider `Cc1cccc(CN(C)c2ncnc3[nH]c(-c4ccc(P(C)(C)=O)cc4)cc23)c1` [LR-2-116, Dimethyl(4-(4-(methyl(3-methylbenzyl)amino)-7H-pyrrolo[2,3-d]pyrimidin-6-yl)phenyl)phosphine oxide], for which the IC50 is less than 0.2 nM. On to `Cc1ccc(F)c(CN(C)c2ncnc3[nH]c(-c4ccccc4)cc23)c1F` [SH-01-126, N-(2,6-Difluoro-3-methylbenzyl)-N-methyl-6-phenyl-7H-pyrrolo[2,3-d]pyrimidin-4-amine], for which the IC50 stood at 9.1 ± 1.1 nM. For `Cc1ccc(F)c(CN(C)c2ncnc3[nH]c(-c4ccc(CN5CCOCC5)cc4)cc23)c1F` [SH-01-128, N-(2,6-Difluoro-3-methylbenzyl)-N-methyl-6-(4-(morpholinomethyl)phenyl)-7H-pyrrolo[2,3-d]pyrimidin-4-amine], the half-inhibitory concentration (IC50) was found to be 0.8 nM. As for `CN(Cc1ccccc1Cl)c1ncnc2[nH]c(-c3ccc(CN4CCOCC4)cc3)cc12` [LR-2-091 (2), N-(2-Chlorobenzyl)-N-methyl-6-(4-(morpholinomethyl)phenyl)-7H-pyrrolo[2,3-d]pyrimidin-4-amine], the IC50 was 1.4 ± 0.2 nM. The result for `CCOc1ccccc1-c1nc2c(N(C)Cc3ccccc3)ncnc2[nH]1` [JKS01-057, N-Benzyl-8-(2-ethoxyphenyl)-N-methyl-9H-purin-6-amine] reads more than 1000 nM; that for `CN(Cc1ccccc1)c1ncnc2sc(-c3ccc(CO)cc3)cc12` [BAHO-3-107, (4-(4-(Benzyl(methyl)amino)thieno[2,3-d]pyrimidin-6-yl)phenyl)methanol], 707 ± 79 nM; that for `Cc1ccc(CN(C)c2ncnc3[nH]c(-c4ccc(CO)cc4)nc23)cc1` [TIA02-174, N-Methyl-N-(4-methylbenzyl)-8-(4-(hydroxymethyl)phenyl)-9H-purin-6-amine], 12 ± 1 nM. Take `COc1ccc(-c2cc3c(N4CCCC4C)ncnc3[nH]2)cc1` (centres unmarked) [MS1-60-134, 6-(4-Methoxyphenyl)-4-(2-methylpyrrolidin-1-yl)-7H-pyrrolo[2,3-d]pyrimidine]: the IC50 turned out to be 0.7 ± 0.1 nM. `CN(Cc1c(Cl)cccc1Cl)c1ncnc2[nH]c(-c3ccc(CN4CCOCC4)cc3)cc12` [LR-2-094 (2), N-(2,6-Dichlorobenzyl)-N-methyl-6-(4-(morpholinomethyl)phenyl)-7H-pyrrolo[2,3-d]pyrimidin-4-amine]: the IC50 is 8.7 ± 1.1 nM. In the case of `COc1cccc(CN(C)c2ncnc3[nH]c(-c4ccc(CO)cc4)nc23)c1` [TIA03-014, N-(3-Methoxybenzyl)-N-methyl-8-(4-(hydroxymethyl)phenyl)-9H-purin-6-amine], the IC50 came to 2.7 ± 0.1 nM.

In the case of `CCN(Cc1ccccc1)c1ncnc2[nH]c(-c3ccc(OC)cc3)nc12` [EH-93, N-Benzyl-N-ethyl-8-(4-methoxyphenyl)-9H-purin-6-amine], the IC50 is more than 50 nM. The result for `CN(Cc1cccc(F)c1)c1ncnc2[nH]c(-c3ccc(CO)cc3)nc12` [TIA02-132, N-Methyl-N-(3-fluorobenzyl)-8-(4-(hydroxymethyl)phenyl)-9H-purin-6-amine] reads 3.5 ± 2.2 nM; that for `CN(Cc1ccccc1)c1ncnc2[nH]ccc12` [TIA04-067, N-Benzyl-N-methyl-7H-pyrrolo[2,3-d]pyrimidin-4-amine], 68 ± 2 nM. Turning to `CN(Cc1c(F)cccc1F)c1ncnc2[nH]c(-c3ccc(CN4CCOCC4)cc3)cc12` [SH-01-129, N-(2,6-Difluorobenzyl)-N-methyl-6-(4-(morpholinomethyl)phenyl)-7H-pyrrolo[2,3-d]pyrimidin-4-amine], the IC50 came to 1.2 nM.

For the compound `CN(Cc1cccnc1)c1ncnc2[nH]c(-c3ccccc3)nc12` [TIA109, N-Methyl-8-phenyl-N-(pyridin-3-ylmethyl)-9H-purin-6-amine], the IC50 amounted to 2.2 nM. As to `CN(CC1CCN(Cc2ccccc2)CC1)c1ncnc2[nH]c(-c3ccc(CO)cc3)nc12` [TIA04-053, N-Methyl-N-(1-benzylpiperidin-4-ylmethyl)-8-(4-(hydroxymethyl)phenyl)-9H-purin-6-amine], the IC50 was determined as 130 ± 12 nM. Take `OCc1ccc(-c2nc3c(NCc4ccccc4)ncnc3[nH]2)cc1` [TIA098, (4-(6-(Benzylamino)-9H-purin-8-yl)phenyl)methanol]: the IC50 is 43 ± 6 nM. With `COc1ccc(CN(C)c2ncnc3[nH]c(-c4ccc(CO)cc4)nc23)cc1` [TIA03-078, N-(4-Methoxybenzyl)-N-methyl-8-(4-(hydroxymethyl)phenyl)-9H-purin-6-amine], the IC50 came out at 61 ± 3 nM.
